ChEMBL document CHEMBL1201862, “PubChem BioAssay data set” (2004)

Legend:
HEK293 = experiment: Fluorescence-based counterscreen for potentiators or agonists of NPY-Y2: cell-based high-throughput dose response assay to identify inhibitors of cyclic nucleotide gated ion channel (CNGC) activity. In this assay, the parental HEK293 cell line transfected with a cyclic-nucleotide gated ion channel (CNGC)-based cAMP sensor is used to measure inhibition of isoproterenol-induced CNGC activity by test compound.; type: functional; details: Homo sapiens;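 also: stimulus is 1 µM isoproterenol at EC100 plus PDE inhibitor Ro 20-1724 at 25 µM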
[1] = target: Neuropeptide Y receptor type 1 (Homo sapiens, UniProt P25929); experiment: Fluorescence-based counterscreen for agonists of NPY-Y2: cell-based high-throughput dose response assay for agonists of NPY-Y1.; type: functional
[2] = target: Neuropeptide Y receptor type 2 (Homo sapiens, UniProt P49146); experiment: Fluorescence-based cell-based high-throughput dose response assay for agonists of NPY-Y2. [Related pubchem assays: 1703 (Screening assay (CNGC inhibitors).), 1359 (Screening assay (NPY-Y2 potentiators or agonists).), 1304 (Screening assay (NPY-Y1 potentiators or agonists).), 1710 (Screening assay (NPY-Y2 agonists).), 1791 (Summary AID.)]; type: functional
[3] = Counterscreen for IDE inhibitors: Luminescence-based cell-based high throughput dose response assay to identify compounds that are cytotoxic to HEK cells. [Related pubchem assays: 434962 (Primary screen (IDE inhibitors in singlicate)), 449730 (Counterscreen (Cytotoxicity in triplicate)), 435028 (Confirmation (IDE inhibitors in triplicate)) …; type: functional; details: HEK293
Insulin-degrading enzyme = target: T1, Insulin-degrading enzyme (Homo sapiens, UniProt P14735); experiment: Dose Response: Fluorescence polarization-based cell-based high throughput dose response assay for inhibitors of insulin-degrading enzyme (IDE). [Related pubchem assays: 434962 (Primary screen (IDE inhibitors in singlicate)), 449730 (Counterscreen (Cytotoxicity in triplicate)), 435028 (Confirmation (IDE inhibitors in triplicate)), 434984 (Summary …; type: functional
T1 sequence (P14735 whole entry): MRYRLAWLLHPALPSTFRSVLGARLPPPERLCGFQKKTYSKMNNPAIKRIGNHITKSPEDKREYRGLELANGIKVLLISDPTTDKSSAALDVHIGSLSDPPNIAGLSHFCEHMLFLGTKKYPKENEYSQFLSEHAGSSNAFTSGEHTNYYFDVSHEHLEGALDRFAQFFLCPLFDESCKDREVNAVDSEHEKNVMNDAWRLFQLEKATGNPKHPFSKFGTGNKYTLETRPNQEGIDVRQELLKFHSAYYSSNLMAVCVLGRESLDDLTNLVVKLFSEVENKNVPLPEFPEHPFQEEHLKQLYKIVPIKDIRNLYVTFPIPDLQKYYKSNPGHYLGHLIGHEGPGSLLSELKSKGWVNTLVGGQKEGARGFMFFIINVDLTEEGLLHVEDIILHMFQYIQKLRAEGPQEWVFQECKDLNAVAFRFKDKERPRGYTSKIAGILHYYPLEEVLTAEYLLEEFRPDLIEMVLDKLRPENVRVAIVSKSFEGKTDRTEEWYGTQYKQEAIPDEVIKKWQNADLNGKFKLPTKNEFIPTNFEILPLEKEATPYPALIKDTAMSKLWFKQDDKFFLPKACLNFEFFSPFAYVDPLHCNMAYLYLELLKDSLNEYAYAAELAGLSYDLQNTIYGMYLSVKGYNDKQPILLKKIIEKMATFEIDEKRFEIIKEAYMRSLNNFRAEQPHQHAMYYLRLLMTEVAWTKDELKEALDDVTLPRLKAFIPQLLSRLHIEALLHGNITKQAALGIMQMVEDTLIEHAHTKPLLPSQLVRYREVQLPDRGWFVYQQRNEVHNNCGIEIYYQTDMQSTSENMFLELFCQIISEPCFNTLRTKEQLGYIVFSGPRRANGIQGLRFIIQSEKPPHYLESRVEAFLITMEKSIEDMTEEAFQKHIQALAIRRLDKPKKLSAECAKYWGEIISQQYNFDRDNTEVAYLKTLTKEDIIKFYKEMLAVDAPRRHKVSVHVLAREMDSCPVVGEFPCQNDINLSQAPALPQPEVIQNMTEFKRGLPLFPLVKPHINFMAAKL

[4] = target: T2, Heat shock 70 kDa protein 1A (Homo sapiens, UniProt P0DMV8); experiment: small-molecule inhibition of Hsp70 – biochemical, TR-FRET (AID 786)
[5] = target: T2, Heat shock 70 kDa protein 1A; experiment: small molecules displacing fluorescent ligand from Hsp70 – biochemical, fluorescence polarization, primary screen (AID 583)

T2 sequence (P0DMV8 whole entry): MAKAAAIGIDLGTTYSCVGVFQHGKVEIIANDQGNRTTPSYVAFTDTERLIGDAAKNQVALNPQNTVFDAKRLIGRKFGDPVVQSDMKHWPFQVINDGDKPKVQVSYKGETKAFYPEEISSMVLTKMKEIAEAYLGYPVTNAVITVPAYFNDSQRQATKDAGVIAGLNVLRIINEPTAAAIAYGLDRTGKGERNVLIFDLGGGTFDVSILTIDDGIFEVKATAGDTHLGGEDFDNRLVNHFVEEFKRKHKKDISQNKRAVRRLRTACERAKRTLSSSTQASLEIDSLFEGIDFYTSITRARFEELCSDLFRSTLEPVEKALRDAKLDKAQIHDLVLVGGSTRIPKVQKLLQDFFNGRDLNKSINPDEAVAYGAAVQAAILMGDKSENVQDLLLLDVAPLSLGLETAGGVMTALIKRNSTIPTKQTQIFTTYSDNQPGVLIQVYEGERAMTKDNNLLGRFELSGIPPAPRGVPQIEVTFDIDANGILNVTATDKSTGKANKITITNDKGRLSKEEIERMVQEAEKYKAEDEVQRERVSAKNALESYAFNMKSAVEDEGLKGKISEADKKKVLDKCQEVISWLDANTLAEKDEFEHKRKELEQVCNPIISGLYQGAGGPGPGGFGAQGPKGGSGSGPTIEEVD
Sequence of Neuropeptide Y receptor type 1 (P25929 whole entry): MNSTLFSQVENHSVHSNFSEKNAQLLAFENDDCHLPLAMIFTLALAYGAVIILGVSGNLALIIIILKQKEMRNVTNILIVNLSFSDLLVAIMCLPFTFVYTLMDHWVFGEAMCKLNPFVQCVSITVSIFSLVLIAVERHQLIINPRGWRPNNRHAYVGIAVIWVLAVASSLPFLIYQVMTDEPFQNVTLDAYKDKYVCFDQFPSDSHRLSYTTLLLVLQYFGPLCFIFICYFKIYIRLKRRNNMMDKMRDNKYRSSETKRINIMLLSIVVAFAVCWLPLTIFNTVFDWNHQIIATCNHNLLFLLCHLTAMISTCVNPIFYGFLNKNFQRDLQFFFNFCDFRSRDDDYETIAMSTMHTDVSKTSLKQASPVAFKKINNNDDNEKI
Sequence of Neuropeptide Y receptor type 2 (P49146 whole entry): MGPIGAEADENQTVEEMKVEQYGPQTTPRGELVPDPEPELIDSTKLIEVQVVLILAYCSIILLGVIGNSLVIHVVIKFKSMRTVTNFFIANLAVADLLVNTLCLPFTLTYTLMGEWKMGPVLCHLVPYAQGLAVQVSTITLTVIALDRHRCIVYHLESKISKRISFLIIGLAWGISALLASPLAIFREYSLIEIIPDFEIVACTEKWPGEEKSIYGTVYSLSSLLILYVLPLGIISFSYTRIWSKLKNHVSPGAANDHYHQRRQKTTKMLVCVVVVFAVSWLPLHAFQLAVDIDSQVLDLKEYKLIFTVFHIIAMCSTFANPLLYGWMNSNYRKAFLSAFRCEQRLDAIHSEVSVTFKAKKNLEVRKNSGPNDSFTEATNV

SMILES: Cc1sc2nc(SCc3ccc(C(=O)O)cc3)n(Cc3ccco3)c(=O)c2c1C
- EC50 (HEK293): > 35.4 µM (not active)
- EC50 [1]: > 35.4 µM (not active)
- EC50 [2]: > 35.4 µM (not active)

SMILES: CCCN1C(=O)/C(=C/c2ccc(N3CCOCC3)cc2)NC1=S
- IC50 [3]: 19 µM (not active)
- IC50 (Insulin-degrading enzyme): 33.1 µM (not active)

SMILES: Cc1cc(NC(=O)CSc2ncnc3ccccc23)no1
- IC50 [4]: > 100 µM (not active)
- IC50 [5]: > 100 µM (not active)
